Test results: publication PMC4520450, “Procyanidins Negatively Affect the Activity of the Phosphatases of Regenerating Liver” (PLoS ONE, 2015)

Assays:
Caco-2 cell model = tested on: Caco-2 cell model; parameters: method as in PMID 23885956; conditions: within 24h; cited from earlier work
[1] = Cytotoxicity by flow cytometry with propidium iodide; type: cell-based; conditions: human
Excerpt: To study the effects of procyanidins on PRL-1 and PRL-3 in cells, the trimeric catechin (procyanidin C2, 9) was chosen as a representative example due to its strong inhibitor activity in vitro toward both PRL-s and its smaller size compared to the higher oligomers, which could influence cell permeability. HEK293 cells stably overexpressing PRL-1 and PRL-3 were chosen as model cell line. As a control cell line, HEK293 cells transfected with the empty vector were utilized (see the Experimental Procedures). To avoid false positive results due to cell death, first cell viability was studied in a concentration dependent manner by using flow cytometry. Therefore, cells were treated with different concentrations of compound 9 for 24 h, harvested, and then the ratio of living to dead cells was determined using propidium iodide (Fig 5).
Fig 5 Cytotoxicity of procyanidin C2 (9) in HEK293 cells. Cells were treated with 50, 150 or 300 μM of 9 in the growth medium for 24 h. Cells were harvested, resuspended in PBS buffer and incubated with propidium iodide (1 mg/mL) for 5 min on ice. 10,000 events were set for the number of living cells. The number of living cells was divided by the number of total cells counted and given as percentage of cell survival. Data represent means ± standard errors of the mean (n = 3).
Fig 7 A) Cytotoxicity of procyanidin B3 (8) in HEK293 cells. Cells were treated with 50, 75 or 100 μM of 8 in the growth medium for 24 h. Cells were harvested, resuspended in PBS buffer and incubated with propidium iodide (1 mg/mL) for 5 min on ice. 10,000 events were set for the number of living cells. The number of living cells was divided by the number of total cells counted and given as percentage of cell survival. Data represent means ± standard errors of the mean (n = 3). B) Wound healing abilities of PRL-1 or PRL-3 overexpressing or empty vector control HEK293 cell lines were analyzed in the presence of compound 8 or medium only. Cells were seeded at a concentration of 800,000 cells per insert and procyanidin B3 (8) was added at a concentration of 50 and 75 μM. Speed of migration is shown for combined data from different replicates, as mean ± SD (n = 40–77). Two-sided t-tests with Welsh correction were performed for p < 0.05. ns = not significant;***: < 0.001; **: < 0.01; *: < 0.05.
Flow cytometry was used to determine the ratio of living to dead cells compared to the control. HEK293 empty vector and PRL-3 overexpressing cells were seeded in a transparent 6-well plate with 400,000 cells/well in DMEM medium without Phenol red, supplemented with 10% FBS, 1% glutamine and 0.2% hygromycin and blasticidin. For induction of PRL-3 expression, 0.1% tetracycline was added. After 24 hours incubation at 37°C, procyanidins 8 or 9 dissolved in growth medium and growth medium as a control were added to the respective wells in the indicated final concentrations and incubated for another 24 hours. Then, the medium was removed and collected in Eppendorf tubes, centrifuged for 5 min at 500 rpm and the supernatant removed. Then 1 mL of PBS (10%) was added to each well and the cells detached with a cell scraper. […] After thorough mixing the cell suspension was injected into a LSR- Fortessa Bench Top Analyzer (Beckton Dickinson) and the number of living and dead cells counted. […] The number of living cells was divided by the number of total cells counted and given as percentage of cell survival.

## Oc1cc(O)c2c(c1)O[C@H](c1ccc(O)c(O)c1)[C@@H](O)[C@@H]2c1c(O)cc(O)c2c1O[C@H](c1ccc(O)c(O)c1)[C@@H](O)C2 [Procyanidin B3 (8), Procyanidin B3]
Caco-2 cell model
  permeation: up to 0.2%

## Oc1cc(O)c2c(c1)O[C@H](c1ccc(O)c(O)c1)[C@@H](O)[C@@H]2c1c(O)cc(O)c2c1O[C@H](c1ccc(O)c(O)c1)[C@@H](O)[C@@H]2c1c(O)cc(O)c2c1O[C@H](c1ccc(O)c(O)c1)[C@@H](O)C2 [Procyanidin C2 (9), Procyanidin C2]
[1]
  viability at 24 h, 150 µM: ~50%
  viability at 24 h, 300 µM: ~50%
